Source: patent EP4603105A1, “PHARMACEUTICAL COMPOSITION CONTAINING CYCLIC COMPOUND HAVING SELECTIVE KRAS INHIBITORY EFFECT AGAINST HRAS AND NRAS” (CHUGAI SEIYAKU KABUSHIKI KAISHA, priority 2022, dated 2024)
Read-outs that look alike come from different tables or passages of the source. Where a SMILES comes first, the peptide text is derived from it. Bridges are numbered along the chain shown (N, C = ends). [ ]: non-standard residue; d: D form. The star is where a group is joined. hPhe(3-Cl-4-CF3) = N[C@@H](CCc1ccc(C(F)(F)F)c(Cl)c1)C(=O)O; NPrPhe(4-CF3) = CCCN[C@@H](Cc1ccc(C(F)(F)F)cc1)C(=O)O; Morpholine(3S-CO) = O=C(O)[C@@H]1COCCN1; NMeGly(cPent) = CN[C@H](C(=O)O)C1CCCC1; Hyp = O=C(O)[C@@H]1C[C@@H](O)CN1; NMeD = CN[C@@H](CC(=O)O)C(=O)O; NMeL = CN[C@@H](CC(C)C)C(=O)O; NMeAbu = CC[C@H](NC)C(=O)O; Morpholide = C1CN(*)CCO1; NMeA = CN[C@@H](C)C(=O)O; Ac5c = NC1(C(=O)O)CCCC1; Aze = O=C(O)[C@@H]1CCN1; Sar = CNCC(=O)O

Columns and labels:
[1] = target: GDP-bound NRAS wild-type protein (Homo sapiens, UniProt P01111); experiment: Binding to NRAS by surface plasmon resonance (SPR), KD and KD ratio to KRAS
Procedure, shortened: (§1)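 Compound binding is evaluated by SPR single-cycle kinetics, with concentrations added intermittently from low to high for 75 s each. Target surfaces carry GDP-loaded biotinylated Avi-RAS at about 100–300 RU, regenerated after each cycle; temperature 30°C. A 1:1 binding model gives KD.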

HRAS wild-type protein = HRAS wild-type protein (Homo sapiens, UniProt P01112); experiment: Binding to HRAS by surface plasmon resonance (SPR), KD and KD ratio to KRAS
Procedure, shortened: as §1

[2] = tested on: human lung cancer strain NCI-H441; format: cell-based
Procedure, shortened: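 Proliferation was scored by […] measured after the reagent was added to cultures kept at 37°C in 5% carbon dioxide.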

[3] = ratio of KD value for GDP-bound NRAS wild-type protein to KD value for KRAS (SPR)
[4] = ratio of KD value for HRAS wild-type protein to KD value for KRAS (SPR)
[5] = ratio of KD for GDP-bound NRAS wild-type protein to KD for KRAS
[6] = ratio of KD for HRAS wild-type protein to KD for KRAS
[7] = ratio of the KD value with respect to GDP-bound NRAS wild-type protein to the KD value with respect to KRAS
[8] = ratio of the KD value with respect to HRAS wild-type protein to the KD value with respect to KRAS

GDP-bound NRAS wild-type protein, sequence (P01111 whole entry): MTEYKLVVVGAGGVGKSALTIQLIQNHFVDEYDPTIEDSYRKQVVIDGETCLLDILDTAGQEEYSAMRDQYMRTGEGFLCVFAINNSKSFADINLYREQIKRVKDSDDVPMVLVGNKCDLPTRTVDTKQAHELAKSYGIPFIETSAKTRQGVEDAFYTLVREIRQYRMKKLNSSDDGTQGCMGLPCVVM
HRAS wild-type protein, sequence (P01112 whole entry): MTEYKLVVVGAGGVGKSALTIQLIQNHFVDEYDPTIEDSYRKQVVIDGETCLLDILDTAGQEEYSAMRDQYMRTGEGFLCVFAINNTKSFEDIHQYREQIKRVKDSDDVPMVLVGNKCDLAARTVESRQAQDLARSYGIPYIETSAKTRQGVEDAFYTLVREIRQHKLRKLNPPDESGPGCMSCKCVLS

SMILES | IC50 [2] [nM] | NRAS /KRAS [1, 5] | HRAS /KRAS (HRAS wild-type protein; [6]) | other results
CCCN(C)C(=O)[C@@H]1CC(=O)N(C)[C@@H](CC2CC2)C(=O)N[C@@H]([C@@H](C)CC)C(=O)N(C)CC(=O)N(C)[C@H]2C/C=C\CCN(C2=O)[C@@H](Cc2ccc(C(F)(F)F)cc2)C(=O)N(C)CC(=O)N[C@@H](CCc2cc(F)c(C(F)(F)F)c(F)c2)C(=O)N2C[C@H](OCC)C[C@H]2C(=O)NC2(CC(F)(F)C2)C(=O)N(C)[C@@H](C2CCCC2)C(=O)N1C [PP1739] | 5.5 | – | – | NRAS /KRAS [1, 3]: AA (a compound having 20 or more is denoted as AA); HRAS /KRAS (HRAS wild-type protein; [4]): AA (a compound having 20 or more is denoted as AA)
CCCN1C(=O)CN(C)C(=O)CN(C)C(=O)[C@H]([C@@H](C)CC)NC(=O)[C@H](CC)N(C)C(=O)C[C@@H](C(=O)N2CCOCC2)N(C)C(=O)[C@H](C2CCCC2)N(C)C(=O)C2(CCCC2)NC(=O)[C@@H]2CCCN2C(=O)[C@H](CCc2ccc(C(F)(F)F)c(Cl)c2)NC(=O)CN(C)C(=O)[C@@H]1Cc1ccc(C(F)(F)F)cc1 [PP0190] ([NMeAbu]I[Sar][Sar][NPrPhe(4-CF3)][Sar][hPhe(3-Cl-4-CF3)]P[Ac5c][NMeGly(cPent)][NMeD]-Morpholide; lactam N-11) | 4.1 | B (a compound having 3 or more and less than 10 is denoted as B) | B (a compound having 3 or more and less than 10 is denoted as B) | –
CCC[C@H]1C(=O)N[C@@H]([C@@H](C)CC)C(=O)N(C)CC(=O)N(C)[C@H]2C/C=C\CCN(C2=O)[C@@H](Cc2ccc(C(F)(F)F)cc2)C(=O)N(C)CC(=O)N[C@@H](CCc2cc(C)c(C3CC3)c(C)c2)C(=O)N2C[C@H](OCC)C[C@H]2C(=O)NC2(CC(C)(C)C2)C(=O)N(C)[C@@H](C2CCCC2)C(=O)N(C)[C@H](C(=O)N(C)C)CC(=O)N1C [PP2863] | – | A (a compound having 10 or more and less than 20 is denoted as A) | A (a compound having 10 or more and less than 20 is denoted as A) | IC50 ([2]; NCI-H441 cells, 4 days, CellTiter-Glo, read-out: NCl-H441 IC50): 128 nM
CCO[C@@H]1C[C@H]2C(=O)NC3(CCC3)C(=O)N(C)[C@@H](C3CCCC3)C(=O)N(C)[C@H](C(=O)N(C)C)CC(=O)N(C)[C@@H](CC)C(=O)N[C@@H]([C@@H](C)CC)C(=O)N(C)CC(=O)N(C)[C@H]3C[C@H]4C[C@H]4CN(C3=O)[C@@H](Cc3ccc(C(F)(F)F)cc3)C(=O)N(C)CC(=O)N[C@@H](CCc3cc(F)c(C(F)(F)F)c(F)c3)C(=O)N2C1 [PP0830] | 3.4 | C (A compound having a KD ratio of 0.1 or more and less than 3 is denoted as C) | C (A compound having a KD ratio of 0.1 or more and less than 3 is denoted as C) | –
CCCN1C(=O)[C@@H]2CCN2C(=O)CN(C)C(=O)[C@H]([C@@H](C)CC)NC(=O)[C@H](CC(C)C)N(C)C(=O)C[C@@H](C(=O)N2CCOCC2)N(C)C(=O)[C@H](C2CCCC2)N(C)C(=O)C2(CCCC2)NC(=O)[C@@H]2C[C@@H](OCC)CN2C(=O)[C@H](CCc2ccc(C(F)(F)F)c(Cl)c2)NC(=O)CN(C)C(=O)[C@@H]1Cc1ccc(C(F)(F)F)cc1 [PP0410] ([NMeL]I[Sar][Aze][NPrPhe(4-CF3)][Sar][hPhe(3-Cl-4-CF3)][Hyp](Et)[Ac5c][NMeGly(cPent)][NMeD]-Morpholide; lactam N-11) | 1.4 | – | – | NRAS /KRAS [1, 7]: C (A compound having a KD ratio of 0.1 or more and less than 3 is denoted as C); HRAS /KRAS (HRAS wild-type protein; [8]): B (a compound having 3 or more and less than 10 is denoted as B)
CCCN1CC(=O)N(C)[C@H]2C/C=C\CCN(C2=O)[C@@H](Cc2ccc(C(F)(F)F)cc2)C(=O)N(C)CC(=O)N[C@@H](CCc2cc(F)c(C(F)(F)F)c(F)c2)C(=O)N2C[C@H](OCC)C[C@H]2C(=O)NC2(CCC2)C(=O)N(C)[C@@H](C2CCCC2)C(=O)N(C)[C@H](C(=O)N(C)C)CC(=O)N(C)[C@@H](CC)C(=O)N[C@@H]([C@@H](C)CC)C1=O [PP1053] | 67.8 | A (a compound having 10 or more and less than 20 is denoted as A) | A (a compound having 10 or more and less than 20 is denoted as A) | –
CCC[C@H]1C(=O)N[C@@H]([C@@H](C)CC)C(=O)N2CCC[C@H]2C(=O)N(C)[C@H]2C/C=C\CCN(C2=O)[C@@H](CC2CCCCC2)C(=O)N(C)CC(=O)N[C@@H](CCc2ccc(C(F)(F)F)c(OC)c2)C(=O)N2C[C@H](OCC)C[C@H]2C(=O)N(C)C2(CCC2)C(=O)N(C)[C@@H](C(CC)CC)C(=O)N(C)[C@H](C(=O)N(C)C)CC(=O)N1C [PP2341] | 133 | – | – | NRAS /KRAS [1, 7]: A (a compound having 10 or more and less than 20 is denoted as A); HRAS /KRAS (HRAS wild-type protein; [8]): A (a compound having 10 or more and less than 20 is denoted as A)
CCCN1C(=O)[C@@H]2CCN2C(=O)[C@H](C)N(C)C(=O)[C@H]([C@@H](C)CC)NC(=O)[C@H](CC(C)C)N(C)C(=O)C[C@@H](C(=O)N2CCOCC2)N(C)C(=O)[C@H](C2CCCC2)N(C)C(=O)C2(CCCC2)NC(=O)[C@@H]2COCCN2C(=O)[C@H](CCc2ccc(C(F)(F)F)c(Cl)c2)NC(=O)CN(C)C(=O)[C@@H]1Cc1ccc(C(F)(F)F)cc1 [PP0286] ([NMeL]I[NMeA][Aze][NPrPhe(4-CF3)][Sar][hPhe(3-Cl-4-CF3)][Morpholine(3S-CO)][Ac5c][NMeGly(cPent)][NMeD]-Morpholide; lactam N-11) | 35 | C (A compound having a KD ratio of 0.1 or more and less than 3 is denoted as C) | B (a compound having 3 or more and less than 10 is denoted as B) | –
CCO[C@@H]1C[C@H]2C(=O)NC3(CCC3)C(=O)N(C)[C@@H](C3CCCC3)C(=O)N(C)[C@H](C(=O)N(C)CC)CC(=O)N(C)[C@@H](CC(C)C)C(=O)N[C@@H]([C@@H](C)CC)C(=O)N(C)CC(=O)N(C)[C@H]3C/C=C\CCN(C3=O)[C@@H](Cc3ccc(C(F)(F)F)cc3)C(=O)N(C)CC(=O)N[C@@H](CCc3cc(F)c(C(F)(F)F)c(F)c3)C(=O)N2C1 [PP1300] | 9.5 | – | – | NRAS /KRAS ([1]; ratio of KD with respect to GDP-bound NRAS wild-type protein to KD with respect to KRAS): A (a compound having 10 or more and less than 20 is denoted as A); HRAS /KRAS (HRAS wild-type protein; ratio of KD with respect to HRAS wild-type protein to KD with respect to KRAS): A (a compound having 10 or more and less than 20 is denoted as A)
CC[C@H](C)[C@@H]1NC(=O)[C@H](CC2CC2)N(C)C(=O)C[C@@H](C(=O)N(C)C)N(C)C(=O)[C@H](C2CCCC2)N(C)C(=O)C2(CCC2)NC(=O)[C@@H]2C[C@@H](C(F)(F)F)CN2C(=O)[C@H](CCc2cc(F)c(C(F)(F)F)c(F)c2)NC(=O)CN(C)C(=O)[C@H](Cc2ccc(C(F)(F)F)cc2)N2CC/C=C\C[C@@H](C2=O)N(C)C(=O)CN(C)C1=O [PP1498] | 10.3 | – | – | NRAS /KRAS [1, 3]: A (a compound having 10 or more and less than 20 is denoted as A); HRAS /KRAS (HRAS wild-type protein; [4]): A (a compound having 10 or more and less than 20 is denoted as A)
CCO[C@@H]1C[C@H]2C(=O)NC3(CCC3)C(=O)N(C)[C@@H](C3CCCC3)C(=O)N(C)[C@H](C(=O)N3CCOCC3)CC(=O)N(C)[C@@H](CC(C)C)C(=O)N[C@@H]([C@@H](C)CC)C(=O)N(C)CC(=O)N(C)[C@H]3CC=CCN(C3=O)[C@@H](Cc3ccc(C(F)(F)F)cc3)C(=O)N(C)CC(=O)N[C@@H](CCc3cc(F)c(C(F)(F)F)c(F)c3)C(=O)N2C1 [PP0832] | 21.5 | C (A compound having a KD ratio of 0.1 or more and less than 3 is denoted as C) | C (A compound having a KD ratio of 0.1 or more and less than 3 is denoted as C) | –
CCC[C@H]1C(=O)N[C@@H]([C@@H](C)CC)C(=O)N(C)CC(=O)N(C)[C@H]2C/C=C\CCN(C2=O)[C@@H](Cc2ccc(C(F)(F)F)cc2)C(=O)N(C)CC(=O)N[C@@H](CCc2cc(F)c(C(F)(F)F)c(F)c2)C(=O)N2C[C@@H](C)C[C@H]2C(=O)NC2(CC(C)(C)C2)C(=O)N(C)[C@@H](C2CCCC2)C(=O)N(C)[C@H](C(=O)N(C)C)CC(=O)N1C [PP1683] | 2.5 | – | – | NRAS /KRAS [1, 3]: A (a compound having 10 or more and less than 20 is denoted as A); HRAS /KRAS (HRAS wild-type protein; [4]): A (a compound having 10 or more and less than 20 is denoted as A)
CCO[C@@H]1C[C@H]2C(=O)NC3(CCCC3)C(=O)N(C)[C@@H](C3CCCC3)C(=O)N(C)[C@H](C(=O)N(C)C)CC(=O)N(C)[C@@H](CC(C)C)C(=O)N[C@@H]([C@@H](C)CC)C(=O)N(C)CC(=O)N(C)[C@H]3C/C=C\CCN(C3=O)[C@@H](Cc3ccc(C)cc3)C(=O)N(C)CC(=O)N[C@@H](CCc3ccc(C(F)(F)F)c(OC)c3)C(=O)N2C1 [PP2197] | 4.6 | – | – | NRAS /KRAS [1, 7]: A (a compound having 10 or more and less than 20 is denoted as A); HRAS /KRAS (HRAS wild-type protein; [8]): B (a compound having 3 or more and less than 10 is denoted as B)
CCCC[C@H]1C(=O)N[C@@H]([C@@H](C)CC)C(=O)N(C)CC(=O)N(C)[C@H]2C/C=C\CCN(C2=O)[C@@H](Cc2ccc(C(F)(F)F)cc2)C(=O)N(C)CC(=O)N[C@@H](CCc2cc(F)c(C(F)(F)F)c(F)c2)C(=O)N2CC(F)(F)C[C@H]2C(=O)NC2(CC(C)(C)C2)C(=O)N(C)[C@@H](C2CCCC2)C(=O)N(C)[C@H](C(=O)N(C)C)CC(=O)N1C [PP1714] | 4.3 | – | – | NRAS /KRAS [1, 3]: A (a compound having 10 or more and less than 20 is denoted as A); HRAS /KRAS (HRAS wild-type protein; [4]): A (a compound having 10 or more and less than 20 is denoted as A)
CCC[C@H]1C(=O)N[C@@H](C2CCCC2)C(=O)N(C)CC(=O)N(C)[C@H]2C/C=C\CCN(C2=O)[C@@H](Cc2ccc(C)cc2)C(=O)N(C)CC(=O)N[C@@H](CCc2cc(F)c(C(F)(F)F)c(F)c2)C(=O)N2C[C@H](OCC)C[C@H]2C(=O)NC2(CC(C)(C)C2)C(=O)N(C)[C@@H](CC(C)(C)C)C(=O)N(C)[C@H](C(=O)N(C)C)CC(=O)N1C [PP2989] | 6.5 | AA (a compound having 20 or more is denoted as AA) | A (a compound having 10 or more and less than 20 is denoted as A) | –
